Measurements: patent US9108983B2, “Pyrrole compounds, a process for their preparation and pharmaceutical compositions containing them” (LES LABORATOIRES SERVIER, priority 2013, dated 2015)
Counter-ions that a name gives are not always drawn. Like-named read-outs stand apart in the source and are kept apart here.

Columns and labels:
Bcl-2 protein = Bcl-2 protein (histag-Bcl-2, UniProtKB P10415) (Homo sapiens (Human), UniProt P10415); assay: Inhibition of Bcl-2 by the fluorescence polarisation technique; assay type: binding; conditions: incubation for 2 hours, read-out: IC50 (nM) Bcl-2 FP
Chain of Bcl-2 protein (P10415 whole entry): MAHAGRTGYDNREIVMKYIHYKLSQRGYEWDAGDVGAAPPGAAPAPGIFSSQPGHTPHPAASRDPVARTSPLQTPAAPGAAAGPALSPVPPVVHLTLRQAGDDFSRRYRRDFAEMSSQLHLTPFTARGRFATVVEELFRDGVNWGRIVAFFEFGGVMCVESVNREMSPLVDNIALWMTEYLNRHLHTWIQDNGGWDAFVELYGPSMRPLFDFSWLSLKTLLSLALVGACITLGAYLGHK
Summary of the method: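 In pH 7.4 buffer (Hepes 10 mM, NaCl 150 mM, Tween20 0.05%), test compounds at increasing concentrations competed with a fluorescein peptide (1.00×10^−8 M final) for histag-Bcl-2 (2.50×10^−8 M final). Readout was fluorescence polarisation after a 2 h incubation.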

[1] = test system: RS4;11 leukaemia tumour line; assay: In vitro cytotoxicity (Microculture Tetrazolium Assay); assay type: cell-based; conditions: RS4;11 cells, exposed for 48 hours, cell viability, read-out: IC50 (nM) MTT RS4;11
Procedure: The cytotoxicity studies were carried out on the RS4;11 leukaemia tumour line.
The cells are distributed onto microplates and exposed to the test compounds for 48 hours.
The cell viability is then quantified by a colorimetric assay, the Microculture Tetrazolium Assay (Cancer Res., 1987, 47, 939-942).

Structure (SMILES)	IC50 (Bcl-2 protein) [nM]	IC50 ([1]; Homo sapiens, RS4-11, 48 h) [nM]	IC50 ([1]; Homo sapiens) [nM]	IC50 [1] [nM]
Cc1c(C(=O)N(C)c2ccc(O)cc2)cc(-c2cc(CCNS(=O)(=O)CCc3ccc(F)cc3)ccc2C(=O)N2Cc3ccccc3C[C@H]2C)n1C [Example 55, 5-(5-[2-({[2-(4-Fluorophenyl)ethyl]sulphonyl}amino)ethyl]-2-{[(3R)-3-methyl-3,4-dihydroisoquinolin-2(1H)-yl]carbonyl}phenyl)-N-(4-hydroxyphenyl)-N,1,2-trimethyl-1H-pyrrole-3-carboxamide]	210	> 600		
Cc1c(C(=O)N(C)c2ccc(O)cc2)cc(-c2cc(CCNC(=O)NCc3ccccc3)ccc2C(=O)N2Cc3ccccc3C[C@H]2C)n1C [Example 56, 5-(5-{2-[(Benzylcarbamoyl)amino]ethyl}-2-{[(3R)-3-methyl-3,4-dihydroisoquinolin-2(1H)-yl]carbonyl}phenyl)-N-(4-hydroxyphenyl)-N,1,2-trimethyl-1H-pyrrole-3-carboxamide]	75	> 600		
Cc1c(C(=O)N(C)c2ccc(O)cc2)cc(-c2cc(CCNC(=O)Nc3ccccc3)ccc2C(=O)N2Cc3ccccc3C[C@H]2C)n1C [Example 58, N-(4-Hydroxyphenyl)-N,1,2-trimethyl-5-(2-{[(3R)-3-methyl-3,4-dihydroisoquinolin-2(1H)-yl]carbonyl}-5-{2-[(phenylcarbamoyl)amino]ethyl}phenyl)-1H-pyrrole-3-carboxamide]	133	> 600		
Cc1c(C(=O)N(c2ccncc2)c2ccc(O)cc2)cc(-c2cc3c(cc2C(=O)N2Cc4ccccc4C[C@H]2C)OCO3)n1C [Example 61, N-(4-Hydroxyphenyl)-1,2-dimethyl-5-(6-{[(3R)-3-methyl-3,4-dihydroisoquinolin-2(1H)-yl]carbonyl}-1,3-benzodioxol-5-yl)-N-(pyridin-4-yl)-1H-pyrrole-3-carboxamide hydrochloride]	4.5	37.8		
COc1cc(C(=O)N2Cc3ccccc3C[C@H]2C)c(-c2cc(C(=O)N(c3ccc(O)cc3)c3cnn(C)c3)c(C)n2C)cc1F [Example 62, 5-(5-Fluoro-4-methoxy-2-{[(3R)-3-methyl-3,4-dihydroisoquinolin-2(1H)-yl]carbonyl}phenyl)-N-(4-hydroxyphenyl)-1,2-dimethyl-N-(1-methyl-1H-pyrazol-4-yl)-1H-pyrrole-3-carboxamide]	14.3	127		
Cc1c(C(=O)N(c2ccccc2)c2cnc3c(ccn3C)c2)cc(-c2cc3c(cc2C(=O)N2Cc4ccccc4C[C@H]2CN2CCOCC2)OCO3)n1C [Example 65, 1,2-Dimethyl-N-(1-methyl-1H-pyrrolo[2,3-b]pyridin-5-yl)-5-(6-{[(3S)-3-(morpholin-4-ylmethyl)-3,4-dihydroisoquinolin-2(1H)-yl]carbonyl}-1,3-benzodioxol-5-yl)-N-phenyl-1H-pyrrole-3-carboxamide hydrochloride]	21.9	113		
Cc1ccc(OC(=O)NCc2ccc(-c3cc(C(=O)N(C)c4ccc(O)cc4)c(C)n3C)c(C(=O)N3Cc4ccccc4C[C@H]3C)c2)cc1 [Example 66, 4-Methylphenyl (4-{4-[(4-hydroxyphenyl)(methyl)carbamoyl]-1,5-dimethyl-1H-pyrrol-2-yl}-3-{[(3R)-3-methyl-3,4-dihydroisoquinolin-2(1H)-yl]-carbonyl}benzyl)carbamate]	16.9		241	
Cc1c(C(=O)N(c2ccc(O)cc2)c2cnc3c(ccn3C)c2)cc(-c2cc3c(cc2C(=O)N2Cc4ccccc4C[C@H]2CN2CCN(C)CC2)OCO3)n1C [Example 69, N-(4-Hydroxyphenyl)-1,2-dimethyl-5-(6-{[(3S)-3-[(4-methylpiperazin-1-yl)methyl]-3,4-dihydroisoquinolin-2(1H)-yl]carbonyl}-1,3-benzodioxol-5-yl)-N-(1-methyl-1H-pyrrolo[2,3-b]pyridin-5-yl)-1H-pyrrole-3-carboxamide hydrochloride]	5.3	3.68		
Cc1c(C(=O)N(c2ccncc2)c2ccc(O)cc2)cc(-c2cc3c(cc2C(=O)N2Cc4ccccc4C[C@H]2CN2CCN(C)CC2)OCO3)n1C [Example 70, N-(4-Hydroxyphenyl)-1,2-dimethy-5-(6-{[(3S)-3-[(4-methylpiperazin-1-yl)methyl]-3,4-dihydroisoquinolin-2(1H)-yl]carbonyl}4,3-benodioxol-5-yl)-N-(pyridin-4-yl)-1H-pyrrole-3-carboxamide hydrochloride]	8.5			63.5
Cc1c(C(=O)N(c2ccncc2)c2ccc(O)cc2)cc(-c2cc3c(cc2C(=O)N2Cc4ccccc4C[C@H]2CN2CCOCC2)OCO3)n1C [Example 73, N-(4-Hydroxyphenyl)-1,2-dimethyl-5-(6-{[(3S)-3-(morpholin-4-ylmethyl)-3,4-dihydroisoquinolin-2(1H)-yl]carbonyl}-1,3-benzodioxol-5-yl)-N-(pyridin-4-yl)-1H-pyrrole-3-carboxamide dihydrochloride]	8	42.6		
Cn1cc(N(C(=O)c2cc(-c3cc4c(cc3C(=O)N3Cc5ccccc5C[C@H]3CN3CCOCC3)OCO4)n(C)c2C(F)(F)F)c2ccc(O)cc2)cn1 [Example 75, N-(4-Hydroxyphenyl)-1-methyl-N-(1-methyl-4H-pyrazol-4-yl)-5-(6-{[(3S)-3-(morpholin-4-ylmethyl)-3,4-dihydroisoquinolin-2(1TH-yl]carbonyl}-1,3-benzodioxol-5-yl)-2-(trifluoromethyl)-1H-pyrrole-3-carboxamide hydrochloride]	52.9			367
C[C@@H]1Cc2ccccc2CN1C(=O)c1cc2c(cc1-c1cc(C(=O)N(c3ccc(O)cc3)c3cnn(C)c3)c(CN3CCOCC3)n1C)OCO2 [Example 82, N-(4-Hydroxyphenyl)-1-methyl-5-(6-{[(3R)-3-methyl-3,4-dihydroisoquinolin-2(1H)-yl]carbonyl}-1,3-benzodioxol-5-yl)-N-(1-methyl-1H-pyrazol-4-yl)-2-(morpholin-4-ylmethyl)-1H-pyrrole-3-carboxamide]	19.5	427		
COCCc1c(C(=O)N(c2ccc(O)cc2)c2cnc3c(ccn3C)c2)cc(-c2cc3c(cc2C(=O)N2Cc4ccccc4C[C@H]2CN2CCOCC2)OCO3)n1C [Example 88, N-(4-Hydroxyphenyl)-2-(2-methoxyethyl)-1-methyl-N-(1-methyl-1H-pyrrolo[2,3-b]pyridin-5-yl)-5-(6-{[(3S)-3-(morpholin-4-ylmethyl)-3,4-dihydroisoquinolin-2(1H)-yl]carbonyl}4,3-benzodioxol-5-yl)-1H-pyrrole-3-carboxamide hydrochloride]	15.9			69.6

Now from value to compound, other results behind:

IC50 (Bcl-2 protein) [nM]	Structure (SMILES)	IC50 ([1]; Homo sapiens, RS4-11, 48 h) [nM]	IC50 ([1]; Homo sapiens) [nM]	IC50 [1] [nM]
80	Cc1c(C(=O)N(C)c2ccc(O)cc2)cc(-c2cc(CCNC(=O)Cc3ccccc3)ccc2C(=O)N2Cc3ccccc3C[C@H]2C)n1C [Example 57, N-(4-Hydroxyphenyl)-N,1,2-trimethyl-5-(2-{[(3R)-3-methyl-3,4-dihydroisoquinolin-2(1H)-yl]carbonyl}-5-{2-[(phenylacetyl)amino]ethyl}phenyl)-1H-pyrrole-3-carboxamide]	> 600		
134	Cc1c(C(=O)N(C)c2ccc(O)cc2)cc(-c2ccc(CNS(=O)(=O)CCc3ccc(F)cc3)cc2C(=O)N2Cc3ccccc3C[C@H]2C)n1C [Example 59, 5-(4-[({[2-(4-Fluorophenyl)ethyl]sulphonyl}amino)methyl]-2-{[(3R)-3-methyl-3,4-dihydroisoquinolin-2(1H)-yl]carbonyl}phenyl)-N-(4-hydroxyphenyl)-N,1,2-trimethyl-1H-pyrrole-3-carboxamide]	> 600		
5.1	Cc1c(C(=O)N(c2ccc(O)cc2)c2cnc3c(ccn3C)c2)cc(-c2cc(Cl)ccc2C(=O)N2Cc3ccccc3C[C@H]2C)n1C [Example 63, 5-(5-Chloro-2-{[(3R)-3-methyl-3,4-dihydroisoquinolin-2(1H)-yl]-carbonyl}phenyl)-N-(4-hydroxyphenyl)-1,2-dimethyl-N-(1-methyl-1H-pyrrolo[2,3-b]-pyridin-5-yl)-1H-pyrrole-3-carboxamide]	11.2		
2.1	Cc1c(C(=O)N(c2ccc(O)cc2)c2cnn(C)c2)cc(-c2cc(F)c(O)cc2C(=O)N2Cc3ccccc3C[C@H]2C)n1C [Example 68, 5-(5-Fluoro-4-hydroxy-2-{[(3R)-3-methyl-3,4-dihydroisoquinolin-2(1H)-yl]carbonyl}phenyl)-N-(4-hydroxyphenyl)-1,2-dimethyl-N-(1-methyl-1H-pyrazol-4-yl)-1H-pyrrole-3-carboxamide]	20.7		
7.7	Cc1c(C(=O)N(c2ccc(O)cc2)c2ccc3c(c2)ncn3C)cc(-c2cc(Cl)ccc2C(=O)N2Cc3ccccc3C[C@H]2CN2CCOCC2)n1C [Example 72, 5-(5-Chloro-2-{[(3S)-3-(morpholin-4-ylmethyl)-3,4-dihydroisoquinolin-2(1H)-yl]carbonyl}phenyl)-N-(4-hydroxyphenyl)-1,2-dimethyl-N-(1-methyl-1H-benzimidazol-5-yl)-1H-pyrrole-3-carboxamide]	43.6		
4	Cc1c(C(=O)N(c2ccncc2)c2ccc(O)cc2)cc(-c2cc(Cl)ccc2C(=O)N2Cc3ccccc3C[C@H]2CN2CCOCC2)n1C [Example 74, 5-(5-Chloro-2-{[(3S)-3-(morpholin-4-ylmethyl)-3,4-dihydroisoquinolin-2(1H)-yl]carbonyl}phenyl)-N-(4-hydroxyphenyl)-1,2-dimethyl-N-(pyridin-4-yl)-1H-pyrrole-3-carboxamide hydrochloride]	45.4		
